This experiment concerns the target NR2B-subtype NMDA receptors (Rattus norvegicus (Rat), UniProt P35439+Q00960). Put plainly: Radioligand binding assay (3H Ro 25-6981 competition, forebrain membranes). The following applies: 3H Ro 25-6981 (4 nM), read-out: NR2B Binding Ki. Here is the method: Radioligand Binding Assay. […] Buchy D; Klingelschmidt A; Messer J; Bleuel Z; Kemp J A; Richards J G. […] Thawed brains were homogenized using a Dounce homogenizer and centrifuged at 48000×g for 20 min. The pellet was resuspended in cold buffer and homogenized again using a Dounce homogenizer. […] After incubation for 1 hr at room temperature, the membrane bound radioligand was harvested on to GF/B filter plates (treated with 0.5% PEI for 1 hr at room temperature). The filter plates were dried at 50° C. for 20 mins, incubated with microscint 20 for 10 minutes and finally, the counts were read on TopCount (Perkin Elmer). […] CPM values were converted to % inhibition and the concentration response curves were plotted using custom made software. Each experiment was repeated at least twice to obtain the final binding Ki values for experimental compounds.

Chain of NR2B-subtype NMDA receptors (Q00960 27-1482, other chains not shown): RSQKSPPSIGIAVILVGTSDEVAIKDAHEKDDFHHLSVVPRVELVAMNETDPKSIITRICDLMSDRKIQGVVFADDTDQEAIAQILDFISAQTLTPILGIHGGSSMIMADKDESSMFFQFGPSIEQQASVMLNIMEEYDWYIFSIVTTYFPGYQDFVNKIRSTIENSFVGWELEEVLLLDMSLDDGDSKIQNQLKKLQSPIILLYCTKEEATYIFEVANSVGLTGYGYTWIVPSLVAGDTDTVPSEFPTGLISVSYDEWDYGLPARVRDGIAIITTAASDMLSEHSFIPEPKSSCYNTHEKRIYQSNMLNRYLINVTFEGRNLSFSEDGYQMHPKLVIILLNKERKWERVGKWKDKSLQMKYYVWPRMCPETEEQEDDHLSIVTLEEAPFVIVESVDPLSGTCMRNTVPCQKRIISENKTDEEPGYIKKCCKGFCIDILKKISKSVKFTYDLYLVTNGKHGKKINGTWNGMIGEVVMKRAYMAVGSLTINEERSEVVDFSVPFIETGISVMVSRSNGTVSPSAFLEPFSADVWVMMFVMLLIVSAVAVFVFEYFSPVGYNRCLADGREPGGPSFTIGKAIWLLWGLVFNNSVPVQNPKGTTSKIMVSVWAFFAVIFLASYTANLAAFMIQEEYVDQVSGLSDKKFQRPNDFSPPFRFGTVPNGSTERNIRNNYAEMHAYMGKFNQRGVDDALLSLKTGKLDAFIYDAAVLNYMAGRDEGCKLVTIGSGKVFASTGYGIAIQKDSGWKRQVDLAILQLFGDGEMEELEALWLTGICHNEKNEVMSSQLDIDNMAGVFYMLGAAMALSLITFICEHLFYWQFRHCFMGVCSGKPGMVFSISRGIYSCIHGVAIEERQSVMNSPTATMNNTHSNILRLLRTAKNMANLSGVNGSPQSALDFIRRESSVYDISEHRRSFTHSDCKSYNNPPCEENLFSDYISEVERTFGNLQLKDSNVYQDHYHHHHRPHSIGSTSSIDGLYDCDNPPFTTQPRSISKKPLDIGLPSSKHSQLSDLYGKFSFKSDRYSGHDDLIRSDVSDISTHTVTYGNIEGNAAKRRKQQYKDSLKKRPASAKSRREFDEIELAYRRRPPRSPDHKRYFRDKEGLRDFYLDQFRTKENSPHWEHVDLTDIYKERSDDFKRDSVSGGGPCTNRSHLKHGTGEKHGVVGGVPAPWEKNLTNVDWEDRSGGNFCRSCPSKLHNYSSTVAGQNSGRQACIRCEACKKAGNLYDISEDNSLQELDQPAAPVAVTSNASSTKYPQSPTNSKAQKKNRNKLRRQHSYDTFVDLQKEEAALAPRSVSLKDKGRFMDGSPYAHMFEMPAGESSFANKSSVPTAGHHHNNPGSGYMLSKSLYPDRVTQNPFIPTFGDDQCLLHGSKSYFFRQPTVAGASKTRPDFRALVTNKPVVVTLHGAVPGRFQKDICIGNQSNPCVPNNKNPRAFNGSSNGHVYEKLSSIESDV

For the compound `O=C1C(N2CCC(c3ccc(O)cc3)C(F)(F)C2)CCN1Cc1ccccc1` (single isomer, unassigned) [Example 91, P-1, 1-Benzyl-3-(3,3-difluoro-4-(4-hydroxyphenyl)piperidin-1-yl)pyrrolidin-2-one], the inhibition constant Ki came out at 76 nM.
In the case of `O=C1C(N2CCC(c3ccc(O)cc3)C(F)(F)C2)CCN1Cc1ccc(F)c(F)c1` (centres unmarked) [Example 97, 3-(3,3-Difluoro-4-(4-hydroxyphenyl)piperidin-1-yl)-1-(3,4-difluorobenzyl)pyrrolidin-2-one], the Ki was 45 nM.
For the compound `O=C1C(N2CCC(c3ccc(O)cc3)C(F)(F)C2)CCN1Cc1ccccc1` (single isomer, unassigned) [Example 91, P-2, 1-Benzyl-3-(3,3-difluoro-4-(4-hydroxyphenyl)piperidin-1-yl)pyrrolidin-2-one], the Ki was determined as 14 nM.
The same measure for `O=C1C(N2CC[C@@H](c3ccc(O)cc3)[C@H](F)C2)CCN1Cc1ccc(F)c(F)c1` (stereo partly drawn) [Example 69, 1-(3,4-Difluorobenzyl)-3-((3S,4S)-3-fluoro-4-(4-hydroxyphenyl)piperidin-1-yl)pyrrolidin-2-one]: 34 nM.
The same measure for `O=C1[C@@H](N2CCC(c3ccc(O)cc3)C(F)(F)C2)CCN1Cc1ccc(Cl)cc1` (stereo partly drawn) [Example 95, P-1, (3S)-1-(4-Chlorobenzyl)-3-(3,3-difluoro-4-(4-hydroxyphenyl)piperidin-1-yl)pyrrolidin-2-one]: 54 nM.
In the case of `O=C1[C@@H](N2CC[C@@H](c3ccc(O)cc3)[C@H](F)C2)CCN1Cc1ccc(C(F)(F)F)cc1` [Example 71, (S)-3-((3S,4S)-3-Fluoro-4-(4-hydroxyphenyl)piperidin-1-yl)-1-(4-(trifluoromethyl)-benzyl)pyrrolidin-2-one], the Ki was 560 nM.
Take `O=C1C(N2CC[C@@H](c3ccc(O)cc3)[C@H](F)C2)CCN1Cc1ccc(OC(F)F)cc1` (stereo partly drawn) [Example 61, 1-(4-(Difluoromethoxy)benzyl)-3-((3S,4S)-3-fluoro-4-(4-hydroxyphenyl)piperidin-1-yl)pyrrolidin-2-one]: the Ki is 46 nM.
`O=C1[C@@H](N2CCC(c3ccc(O)cc3)CC2)CCN1Cc1ccc(F)c(F)c1` [Example 6a, (S)-1-(3,4-Difluorobenzyl)-3-(4-(4-hydroxyphenyl)piperidin-1-yl)pyrrolidin-2-one]: the Ki was determined as 850 nM.
The same measure for `O=C1C(N2CCCC(c3ccc(O)cc3)CC2)CCN1Cc1ccccc1` (centres unmarked) [Example 37, 1-Benzyl-3-(4-(4-hydroxyphenyl)azepan-1-yl)pyrrolidin-2-one]: 21 nM.
Take `O=C1[C@H](N2CCC(c3ccc(O)cc3)C(F)(F)C2)CCN1Cc1ccc(Cl)c(F)c1` (stereo partly drawn) [Example 96, P-2, (3R)-1-(4-Chloro-3-fluorobenzyl)-3-(3,3-difluoro-4-(4-hydroxyphenyl)piperidin-1-yl)pyrrolidin-2-one]: the Ki was found to be 18 nM.
The same measure for `O=C1C(N2CCC(c3ccc(O)cc3)C(F)(F)C2)CCN1Cc1ccc(Cl)c(Cl)c1` (centres unmarked) [Example 109, 1-(3,4-Dichlorobenzyl)-3-(3,3-difluoro-4-(4-hydroxyphenyl)piperidin-1-yl)pyrrolidin-2-one]: 290 nM.
In the case of `O=C1[C@H](N2CCC(c3ccc(O)cc3)C(F)(F)C2)CCN1Cc1ccccc1` (stereo partly drawn) [Example 102, P-2, (3R)-1-Benzyl-3-(3,3-difluoro-4-(4-hydroxyphenyl)piperidin-1-yl)pyrrolidin-2-one] it was 30 nM; in that of `Cc1ccc(CN2CCC(N3CCCC(c4ccc(O)cc4)C3)C2=O)cc1` (centres unmarked) [Example 3, 1-(4-Methylbenzyl)-3-(3-(4-hydroxyphenyl)piperidin-1-yl)pyrrolidin-2-one], 1320 nM.
In the case of `O=C1C(N2CCC(c3ccc(O)cc3)C(F)(F)C2)CCN1Cc1ccc(F)c(Cl)c1` (centres unmarked) [Example 100, 1-(3-Chloro-4-fluorobenzyl)-3-(3,3-difluoro-4-(4-hydroxyphenyl)piperidin-1-yl)pyrrolidin-2-one] it was 570 nM.
`O=C1[C@@H](N2CC[C@H](c3ccc(O)cc3)[C@@H](F)C2)CCN1Cc1ccccc1` [Example 74, (S)-1-Benzyl-3-((3R,4R)-3-fluoro-4-(4-hydroxyphenyl)piperidin-1-yl)pyrrolidin-2-one]: the Ki stood at 680 nM.
In the case of `O=C1C(N2CCC(c3ccc(O)cc3)CC2)CCN1C1CCc2ccccc21` (centres unmarked) [Example 34, 1-(2,3-Dihydro-1H-inden-1-yl)-3-(4-(4-hydroxyphenyl)piperidin-1-yl)pyrrolidin-2-one], the Ki came out at 670 nM.
As to `O=C1[C@H](N2CC[C@H](c3ccc(O)cc3)[C@@H](F)C2)CCN1Cc1ccc(F)cc1` [Example 48, P-4], the Ki came to 13 nM.
Turning to `O=C1C(N2CCC(c3ccc(O)cc3)C(O)C2)CCN1Cc1ccc(F)cc1` (single isomer, unassigned) [Example 9b, 1-(4-Fluorobenzyl)-3-(3-hydroxy-4-(4-hydroxyphenyl)-piperidin-1-yl)pyrrolidin-2-one], the Ki came to 1400 nM.
Turning to `O=C1C(N2CC(c3ccc(O)cc3)C2)CCN1Cc1ccccc1` (centres unmarked) [Example 16, 1-Benzyl-3-(3-(4-hydroxyphenyl)azetidin-1-yl)pyrrolidin-2-one], the inhibition constant Ki is 560 nM.
`C[C@@H](c1ccc(F)cc1)N1CCC(N2CCC(c3ccc(O)cc3)C(F)(F)C2)C1=O` (single isomer, unassigned) [Example 56, P-2]: the Ki was 1400 nM.
Turning to `Cc1ccc(CN2CC[C@@H](N3CC[C@@H](c4ccc(O)cc4)[C@H](F)C3)C2=O)cc1F` [Example 47, P-3, (R)-3-((3S,4S)-3-fluoro-4-(4-hydroxyphenyl)piperidin-1-yl)-1-(3-fluoro-4-methylbenzyl)pyrrolidin-2-one], the inhibition constant (Ki) was determined as 3.8 nM.
As to `O=C1[C@@H](N2CC[C@@H](c3ccc(O)cc3)[C@H](F)C2)CCN1Cc1ccc(Cl)c(F)c1` [Example 66, (S)-1-(4-Chloro-3-fluorobenzyl)-3-((3S,4S)-3-fluoro-4-(4-hydroxyphenyl)piperidin-1-yl)pyrrolidin-2-one], the Ki is 1500 nM.
Take `O=C1[C@H](N2CC[C@@H](c3ccc(O)cc3)[C@H](F)C2)CCN1Cc1ccccc1` [Example 58, (R)-1-Benzyl-3-((3S,4S)-3-fluoro-4-(4-hydroxyphenyl)piperidin-1-yl)pyrrolidin-2-one]: the Ki came to 8.7 nM.
As to `O=C1C(N2CCCC(c3ccc(O)cc3)C2)CCN1Cc1ccc(F)cc1` (centres unmarked) [Example 4, 1-(4-Fluorobenzyl)-3-(3-(4-hydroxyphenyl)piperidin-1-yl)pyrrolidin-2-one], the Ki was no less than 5000 nM.
For `O=C1[C@H](N2CC[C@H](c3ccc(O)cc3)[C@@H](F)C2)CCN1Cc1ccc(Cl)c(F)c1` [Example 83, (R)-1-(4-Chloro-3-fluorobenzyl)-3-((3R,4R)-3-fluoro-4-(4-hydroxyphenyl)piperidin-1-yl)pyrrolidin-2-one], the inhibition constant Ki amounted to 5 nM.
As to `O=C1[C@H](N2CCC(c3ccc(O)cc3)C(F)(F)C2)CCN1c1ccc(OC(F)F)c(Cl)c1` (stereo partly drawn) [Example 101, P-2, (3R)-1-(3-Chloro-4-(difluoromethoxy)phenyl)-3-(3,3-difluoro-4-(4-hydroxyphenyl)-piperidin-1-yl)pyrrolidin-2-one], the Ki worked out at 11 nM.
On to `C[C@@H](c1ccccc1)N1CCC(N2CC[C@@H](c3ccc(O)cc3)[C@H](F)C2)C1=O` (stereo partly drawn) [Example 68, 3-((3S,4S)-3-Fluoro-4-(4-hydroxyphenyl)piperidin-1-yl)-1-(1-phenylethyl)pyrrolidin-2-one], for which the inhibition constant (Ki) came to 710 nM.
Turning to `O=C1[C@@H](N2CC[C@@H](c3ccc(O)cc3)[C@H](F)C2)CCN1Cc1ccc(Cl)cc1` [Example 64, (S)-1-(4-Chlorobenzyl)-3-((3S,4S)-3-fluoro-4-(4-hydroxyphenyl)piperidin-1-yl)pyrrolidin-2-one], the Ki amounted to 490 nM.
In the case of `O=C1[C@@H](N2CCC(c3ccc(O)cc3)C(F)(F)C2)CCN1Cc1ccc(Cl)c(F)c1` (single isomer, unassigned) [Example 107, P-1] it was 1200 nM.
Turning to `Cc1ccc(CN2CC[C@H](N3CC[C@@H](c4ccc(O)c(F)c4)[C@H](F)C3)C2=O)cc1F` [Example 45, P-1, (S)-3-((3S,4S)-3-fluoro-4-(3-fluoro-4-hydroxyphenyl)piperidin-1-yl)-1-(3-fluoro-4-methylbenzyl)pyrrolidin-2-one], the inhibition constant (Ki) came to 260 nM.
For the compound `O=C1[C@H](N2CCC(c3ccc(O)cc3)CC2)CCN1Cc1ccc(O)cc1` [Example 25b, (R)-1-(4-Hydroxybenzyl)-3-(4-(4-hydroxyphenyl)piperidin-1-yl)pyrrolidin-2-one], the inhibition constant (Ki) stood at 5.3 nM.
Regarding `Cc1cccc(CN2CCC(N3CCC(c4ccc(O)cc4)C(F)(F)C3)C2=O)c1` (centres unmarked) [Example 104, 3-(3,3-Difluoro-4-(4-hydroxyphenyl)piperidin-1-yl)-1-(3-methylbenzyl)pyrrolidin-2-one], the Ki is 130 nM.
In the case of `Cc1ccc(CN2CC[C@H](N3CC[C@H](c4ccc(O)c(F)c4)[C@@H](F)C3)C2=O)cc1F` [Example 45, P-3, (S)-3-((3R,4R)-3-Fluoro-4-(3-fluoro-4-hydroxyphenyl)piperidin-1-yl)-1-(3-fluoro-4-methylbenzyl)pyrrolidin-2-one] it was 380 nM; in that of `Cc1cccc(CN2CCC(N3CC[C@@H](c4ccc(O)cc4)[C@H](F)C3)C2=O)c1` (stereo partly drawn) [Example 60, 3-((3S,4S)-3-Fluoro-4-(4-hydroxyphenyl)piperidin-1-yl)-1-(3-methylbenzyl)pyrrolidin-2-one], 110 nM.
For the compound `O=C1[C@H](N2CC[C@@H](c3ccc(O)cc3)[C@H](F)C2)CCN1c1ccc(OC(F)F)c(Cl)c1` [Example 63, (R)-1-(3-Chloro-4-(difluoromethoxy)phenyl)-3-((3S,4S)-3-fluoro-4-(4-hydroxyphenyl)-piperidin-1-yl)pyrrolidin-2-one], the Ki is 10 nM.
